# Test results published in the NIST ThermoML archive (doi:10.1016/j.jct.2017.06.018).
# ± gives the expanded uncertainty stated by the source.
# Settings: Liquid, Closed cell (Static) method
compound,measurement,setting,value
"C=C(F)C(F)(F)F [2,3,3,3-tetrafluoro-1-propene]",vapor or sublimation pressure,243.15 K,99.4 ± 1.6 kPa
same,vapor or sublimation pressure,248.15 K,123.2 ± 1.6 kPa
same,vapor or sublimation pressure,253.15 K,151.4 ± 1.6 kPa
same,vapor or sublimation pressure,258.15 K,184.2 ± 1.6 kPa
same,vapor or sublimation pressure,263.15 K,222.4 ± 1.6 kPa
same,vapor or sublimation pressure,268.15 K,266.9 ± 1.6 kPa
same,vapor or sublimation pressure,273.15 K,317.2 ± 1.7 kPa
same,vapor or sublimation pressure,278.15 K,374.4 ± 1.7 kPa
same,vapor or sublimation pressure,283.15 K,438.5 ± 1.7 kPa
same,vapor or sublimation pressure,288.15 K,511.9 ± 1.8 kPa
same,vapor or sublimation pressure,293.15 K,591.7 ± 1.8 kPa
